Assay results: US20060069132A1, “Azolecarboxamide herbicides” (priority 2004, published 2006)

Tests used:
giant foxtail [1] = experiment: Test B pre-/postemergence herbicide test; assay type: in vivo, Setaria faberi
Procedure, shortened: (§1)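 Pre: seeds sown, then sprayed. Post: 1–4-leaf plants (2–18 cm) sprayed at the same time. Paddy: flooded, treated at 2-leaf stage. Formulation: non-phytotoxic solvent with surfactant. Greenhouse 13–15 days; visual 0–100 score relative to controls.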

rice [2] = experiment: Test B pre-/postemergence herbicide test; assay type: in vivo, Oryza sativa; details: preemergence, 125 g ai/ha; 0 to 100 scale, 0 is no effect, 100 is complete control
Procedure, shortened: as §1

velvetleaf [3] = experiment: Test B pre-/postemergence herbicide test; assay type: in vivo, Abutilon theophrasti
Procedure, shortened: as §1

large crabgrass [4] = experiment: Test A pre-/postemergence herbicide test; assay type: in vivo, Digitaria sanguinalis; details: for Plant response rating, Crabgrass, Large: Postemergence; for Crabgrass, Large plant response rating: Preemergence
Procedure, shortened: (§2)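 Seeds sown in sandy loam received a preemergence directed soil spray of compound in non-phytotoxic solvent with surfactant; postemergence plants (2–10 cm, one- to two-leaf stage) were sprayed to runoff at the same time. After ~10 days in greenhouse, injury was rated visually versus untreated controls (0 = no effect, 100 = complete control).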

velvetleaf [5] = experiment: Test A pre-/postemergence herbicide test; assay type: in vivo, Abutilon theophrasti; details: for Velvetleaf plant response rating: Preemergence, visual rating, 0 to 100 scale (0 no effect, 100 complete control)
Procedure, shortened: as §2

lambsquarters = experiment: Test B pre-/postemergence herbicide test; assay type: in vivo, Chenopodium album
Procedure, shortened: as §1

cocklebur = experiment: Test B pre-/postemergence herbicide test; assay type: in vivo, Xanthium strumarium
Procedure, shortened: (§3)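 Greenhouse pot assay with simultaneous preemergence (treated seed) and postemergence (2–18 cm seedlings) applications of surfactant-containing, non-phytotoxic solvent formulations. Response scored visually 13–15 days later on a 0–100 scale, 100 meaning complete control.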

ducksalad = experiment: Test B flooded paddy test; assay type: in vivo, Heteranthera limosa; details: 1000 g ai/ha, visual rating, scale 0 to 100 (0 no effect, 100 complete control), 13 to 15 days
Procedure, shortened: (§4)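 Greenhouse test; postemergence application to plants at 1–4 leaves (2–18 cm); paddy species at 2 leaves; evaluated visually vs controls at 13–15 days; scale 0–100 (100 = complete control).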

wheat = experiment: Test B postemergence herbicide test; assay type: in vivo, Triticum aestivum; design: key to Wheat plant response rating: 0 = no effect, 100 = complete control; details: scale 0 (no effect) to 100 (complete control)
Procedure, shortened: as §4

pigweed = experiment: Test B pre-/postemergence herbicide test; assay type: in vivo, Amaranthus retroflexus
Procedure, shortened: as §1

wild oat = experiment: Test B postemergence herbicide test; assay type: in vivo, Avena fatua; details: scale 0 (no effect) to 100 (complete control)
Procedure, shortened: as §4

[6] = tested on: small flower umbrella sedge; experiment: Test B flooded paddy test; assay type: in vivo, Cyperus difformis; details: 1000 g ai/ha, visual rating, scale 0 to 100 (0 no effect, 100 complete control), 13 to 15 days
Procedure, shortened: as §4

barnyardgrass [7] = experiment: Test A pre-/postemergence herbicide test; assay type: in vivo, Echinochloa crus-galli; details: for Plant response rating, Barnyardgrass: Postemergence; for Barnyardgrass plant response rating: Preemergence
Procedure, shortened: as §2

rice [8] = experiment: Test B flooded paddy test; assay type: in vivo, Oryza sativa; details: 1000 g ai/ha, visual rating, scale 0 to 100 (0 no effect, 100 complete control), 13 to 15 days
Procedure, shortened: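 Plants grow to 1- to 4-leaf stage (2–18 cm) for postemergence spraying, or to 2-leaf stage for the paddy test. Formulated compound is applied. Greenhouse holding lasts 13–15 days. Response is scored visually relative to controls, 0 no effect to 100 complete control; a dash means no result.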

giant foxtail [9] = experiment: Test A pre-/postemergence herbicide test; assay type: in vivo, Setaria faberi; details: for Plant response rating, Foxtail, Giant: Postemergence; for Foxtail, Giant plant response rating: Preemergence
Procedure, shortened: as §2

barnyardgrass [10] = experiment: Test B flooded paddy test; assay type: in vivo, Echinochloa crus-galli; details: 1000 g ai/ha, visual rating, scale 0 to 100 (0 no effect, 100 complete control), 13 to 15 days
Procedure, shortened: as §4

blackgrass = experiment: Test B postemergence herbicide test; assay type: in vivo, Alopecurus myosuroides; details: scale 0 (no effect) to 100 (complete control)
Procedure, shortened: as §4

Surinam grass = experiment: Test B pre-/postemergence herbicide test; assay type: in vivo, Urochloa decumbens
Procedure, shortened: as §1

large crabgrass [11] = experiment: Test B pre-/postemergence herbicide test; assay type: in vivo, Digitaria sanguinalis
Procedure, shortened: as §1

barnyardgrass [12] = experiment: Test B pre-/postemergence herbicide test; assay type: in vivo, Echinochloa crus-galli
Procedure, shortened: as §3

morningglory [13] = experiment: Test B pre-/postemergence herbicide test; assay type: in vivo, Ipomoea coccinea
Procedure, shortened: as §3

redroot pigweed = experiment: Test A pre-/postemergence herbicide test; assay type: in vivo, Amaranthus retroflexus; details: for Plant response rating, Pigweed: Postemergence; for Pigweed plant response rating: Preemergence
Procedure, shortened: as §2

morningglory [14] = experiment: Test A pre-/postemergence herbicide test; assay type: in vivo, Ipomoea spp.; details: for Plant response rating, Morningglory: Postemergence; for Morningglory plant response rating: Preemergence
Procedure, shortened: as §2

corn = experiment: Test B pre-/postemergence herbicide test; assay type: in vivo, Zea mays
Procedure, shortened: as §1

[15] = Postemergence, 500 g ai/ha, visual rating after 13 to 15 days, scale 0 (no effect) to 100 (complete control)
[16] = Preemergence, 500 g ai/ha, scale 0 to 100
[17] = postemergence, 125 g ai/ha, visual rating, scale 0 (no effect) to 100 (complete control)
[18] = preemergence, 125 g ai/ha, 0 to 100 scale, 0 is no effect, 100 is complete control
[19] = 500 g ai/ha, 0 to 100 scale, 0 no effect, 100 complete control
[20] = 2000 g ai/ha, 0 to 100 scale, 0 no effect, 100 complete control
[21] = 500 g ai/ha, visual rating, 0 to 100 scale (0 no effect, 100 complete control)
[22] = Postemergence, 500 g ai/ha, visual rating after 13 to 15 days
[23] = postemergence, 125 g ai/ha, visual rating

CCn1nc(C(C)(C)C)cc1C(=O)Nc1cccc(C(=O)OCC(F)(F)F)c1 [Compound 83]
Plant response rating, Foxtail, Giant (giant foxtail [1]; [15]): 10
Foxtail, Giant plant response rating (giant foxtail [1]; [16]): 0
Foxtail, Giant plant response rating (giant foxtail [1]; [17]): 0
Plant response rating, Foxtail, Giant (giant foxtail [1]; [18]): 0
Plant response rating, Rice (rice [2]): 0
Plant response rating, Velvetleaf (velvetleaf [3]; [15]): 70
Velvetleaf plant response rating (velvetleaf [3]; [17]): 50
Plant response rating, Velvetleaf (velvetleaf [3]; [18]): 0
Plant response rating, Crabgrass, Large (large crabgrass [4]; [19]): 30
Plant response rating, Crabgrass, Large (large crabgrass [4]; [20]): 25
Crabgrass, Large plant response rating (large crabgrass [4]; [21]): 0
Crabgrass, Large plant response rating (large crabgrass [4]; [20]): 0
Plant response rating, Velvetleaf (velvetleaf [5]; Postemergence, 2000 g ai/ha, 0 to 100 scale, 0 no effect, 100 complete control): 20
Velvetleaf plant response rating (velvetleaf [5]; 500 g ai/ha): 0
Velvetleaf plant response rating (velvetleaf [5]; 2000 g ai/ha): 0
Plant response rating, Lambsquarters (lambsquarters; [15]): 60
Lambsquarters plant response rating (lambsquarters; [17]): 0
Plant response rating, Lambsquarters (lambsquarters; [18]): 0
Plant response rating, Cocklebur (cocklebur; [15]): 20
Cocklebur plant response rating (cocklebur; [16]): 0
Cocklebur plant response rating (cocklebur; [17]): 0
Ducksalad plant response rating (ducksalad): 30
Plant response rating, Wheat (wheat; [22]): 30
Wheat plant response rating (wheat; [23]): 20
Plant response rating, Pigweed (pigweed; [15]): 100
Pigweed plant response rating (pigweed; [17]): 70
Plant response rating, Pigweed (pigweed; [18]): 0
Plant response rating, Oat, Wild (wild oat; [22]): 20
Oat, Wild plant response rating (wild oat; [23]): 10
Sedge, Umbrella plant response rating [6]: 50
Plant response rating, Barnyardgrass (barnyardgrass [7]; [19]): 5
Plant response rating, Barnyardgrass (barnyardgrass [7]; [20]): 20
Barnyardgrass plant response rating (barnyardgrass [7]; [21]): 0
Barnyardgrass plant response rating (barnyardgrass [7]; [20]): 0
Rice plant response rating (rice [8]): 10
Plant response rating, Foxtail, Giant (giant foxtail [9]; [19]): 20
Plant response rating, Foxtail, Giant (giant foxtail [9]; [20]): 20
Foxtail, Giant plant response rating (giant foxtail [9]; [21]): 0
Foxtail, Giant plant response rating (giant foxtail [9]; [20]): 0
Barnyardgrass plant response rating (barnyardgrass [10]): 10
Plant response rating, Blackgrass (blackgrass; [22]): 0
Blackgrass plant response rating (blackgrass; [23]): 0
Plant response rating, Surinam Grass (Surinam grass; [15]): 40
Surinam Grass plant response rating (Surinam grass; [17]): 20
Plant response rating, Surinam Grass (Surinam grass; [18]): 0
Plant response rating, Crabgrass, Large (large crabgrass [11]; [15]): 30
Crabgrass, Large plant response rating (large crabgrass [11]; [16]): 0
Crabgrass, Large plant response rating (large crabgrass [11]; [17]): 30
Plant response rating, Crabgrass, Large (large crabgrass [11]; [18]): 0
Plant response rating, Barnyardgrass (barnyardgrass [12]; [15]): 50
Barnyardgrass plant response rating (barnyardgrass [12]; [16]): 0
Barnyardgrass plant response rating (barnyardgrass [12]; [17]): 10
Plant response rating, Barnyardgrass (barnyardgrass [12]; [18]): 0
Plant response rating, Morningglory (morningglory [13]; [15]): 30
Morningglory plant response rating (morningglory [13]; [17]): 0
Plant response rating, Morningglory (morningglory [13]; [18]): 0
Plant response rating, Pigweed (redroot pigweed; [19]): 45
Plant response rating, Pigweed (redroot pigweed; [20]): 55
Pigweed plant response rating (redroot pigweed; [21]): 0
Pigweed plant response rating (redroot pigweed; [20]): 0
Plant response rating, Morningglory (morningglory [14]; [19]): 10
Plant response rating, Morningglory (morningglory [14]; [20]): 10
Morningglory plant response rating (morningglory [14]; [21]): 30
Morningglory plant response rating (morningglory [14]; [20]): 10
Plant response rating, Corn (corn; [15]): 30
Corn plant response rating (corn; [16]): 0
Corn plant response rating (corn; [17]): 10
Plant response rating, Corn (corn; [18]): 0
